How the values were obtained:
[1] = tested on: Salmonella strains TA 98, TA 2637, and TA 100; conditions: at highest non-toxic concentration; cited from earlier work
PC-3 cells [2] = assay: Mitochondrial membrane permeability, rhodamine 123 flow cytometry; assay type: cell-based, human; conditions: control treated cells assigned 100%
From the text: (§1) Mitochondria play a crucial role in the apoptotic cascade by serving as a convergent center of apoptotic signals originating from both the extrinsic and intrinsic pathways. Changes induced in the mitochondrial membrane potential (MMP) have been reported previously to represent a determinant in the execution of cell death. As polygodial has been described as an inhibitor of mitochondrial ATPase and also as nonionic surfactant. This effect may be determinant in cell death, we has analyzed the effect of compounds 1, 8 and 12 on the mitochondrial membrane potential using flow cytometry with rhodamine 123 stain [24]. […] Similar differences were observed after treatments with compounds 1 and 8 at 100 μM.
(§2) Rhodamine 123, a cationic, voltage-sensitive probe that reversibly accumulates in mitochondria, was used to detect changes in transmembrane mitochondrial membrane potentials. Cells were labelled with 1 μM rhodamine 123 at 37 °C in cell medium for 60 min before terminating the experiment. Cells were detached from the plate, after washing with ice cold PBS, and the samples were analyzed by flow cytometry. Data are expressed in percentage of cells with rhodamine 123 [24].

MCF-7 cells [3] = assay: as above; assay type: cell-based, human; conditions: control treated cells assigned 100%
From the text: as §1, §2

CoN cells [4] = assay: as above; assay type: cell-based, human; conditions: control treated cells assigned 100%
From the text: as §1, §2

caspase-3 in PC-3 cells = assay: Caspase 3 activity assay (colorimetric, DEVD-pNA); assay type: cell-based, human; conditions: PC-3, compound 50 μM; control 1% ethanol
From the text: (§3) Depletion of mitochondrial membrane potential leads to the release of apoptogenic factors, such as cytochrome c in the apoptotic cascade, and activation of caspases. Then we investigated the effects of our compounds on caspase activity. We focused on caspase-3, which is a main executor of apoptosis playing a central role in its biological processing. We analyzed the effect of treatment with the compound 1, 8 and 12 on caspase-3 activation in normal and cancer cells. […] Compound 1 increased the activity of caspase-3 by 3.4 ± 0.1, 1.4 ± 0.1 and 2.8 ± 0.1 times versus control cells in MCF-7 (black), CoN (white) and PC-3 (gray) cells, respectively. Compound 8 increased the activity of caspase 3 by 2.4 ± 0.1, 1.3 ± 0.2 and 2.7 ± 0.1 times versus control cells in MCF-7 (black), CoN (white) and PC-3 (gray) cells, respectively.
(§4) Caspase activity was measured using a colorimetric assay. Briefly, the cells exposed to compounds were collected by centrifugation at 1000 rpm and lysed with lysis buffer (1% Triton X-100, 0.32 M sucrose, 5 mM EDTA, 10 mM Tris–HCl, pH 8.0, 2 mM dithiothreitol, 1 mM PMSF, […] aprotinin, 1 mg/mL leupeptin). Thereafter, the lysates were transferred to wells in a 96-well microplate and were incubated with DEVD-pNA (final concentration 200 μM) specific for caspase-3/7, at 37 °C for 1 h. The intensity of the developed color was read at 405 nm in a microplate reader (SpectraMax, Winooski, VT, USA). The results are expressed as percentages of the control level.

caspase-3 in MCF-7 cells = assay: Caspase 3 activity assay (colorimetric, DEVD-pNA); assay type: cell-based, human; conditions: MCF-7, compound 50 μM; control 1% ethanol
From the text: as §3, §4

caspase-3 in CoN cells = assay: Caspase 3 activity assay (colorimetric, DEVD-pNA); assay type: cell-based, human; conditions: compound 50 μM, control 1% ethanol
From the text: as §3, §4

PC-3 cells [5] = assay: Morphological assessment of cell apoptosis, Hoechst 33342 staining; assay type: cell-based, human; conditions: PC-3, 24 h exposure, fluorescence microscope
Description: (§5) Nuclear changes in PC-3, MCF-7 and CoN cells were observed under a fluorescence microscope (200×, Figure 4).
(§6) Briefly, on 24-well chamber slides, 1 × 10^4 cells/mL were cultured and exposed to compounds for 24 h. The control group was also exposed to 1% ethanol. The cells were washed twice with phosphate buffer solution, fixed with 3.7% formaldehyde, and washed again with phosphate buffer solution. Following the addition of 1 μM Hoechst 33342 (Sigma-Aldrich, Santiago, Chile), they were reacted in a dark room at room temperature for 30 min. After washing, they were examined under an immunofluorescence microscope (IX 81 model inverted microscope, Olympus, Santiago, Chile).

MCF-7 cells [6] = assay: as above; assay type: cell-based, human; conditions: MCF-7, 24 h exposure, fluorescence microscope
Description: as §5, §6

CoN cells [7] = assay: as above; assay type: cell-based, human; conditions: 24 h exposure, fluorescence microscope
Description: as §5, §6

CC1(C)CCC[C@]2(C)[C@@H](C=O)C(C=O)=CC[C@@H]12 [Compound 1, polygodial]
mutagenic activity [1]: no mutagenic activity | percentage of rhodamine 123 stained cells (PC-3 cells [2]; PC-3, compound 50 µM): 49.1% ± 6.6% | percentage of rhodamine 123 stained cells (PC-3 cells [2]; PC-3, compound 50 µM, listed as Comp. 1): 111.6 ± 8.9% | percentage of rhodamine 123 stained cells (PC-3 cells [2]; PC-3, compound 100 µM): 11.9 ± 2.4 % | percentage of rhodamine 123 stained cells (MCF-7 cells [3]; MCF-7, compound 50 µM): 77.0% ± 6.5% | percentage of rhodamine 123 stained cells (MCF-7 cells [3]; MCF-7, compound 50 µM, listed as Comp. 1): 77.0 ± 6.5 % | percentage of rhodamine 123 stained cells (MCF-7 cells [3]; MCF-7, compound 100 µM): 19.4 ± 1.5 % | percentage of rhodamine 123 stained cells (CoN cells [4]; compound 50 µM): 111.6% ± 8.9% | percentage of rhodamine 123 stained cells (CoN cells [4]; compound 50 µM, listed as Comp. 1): 49.1 ± 6.6 % | percentage of rhodamine 123 stained cells (CoN cells [4]; compound 100 µM): 11.8 ± 2.9 % | increase of caspase-3 activity (caspase-3 in PC-3 cells): 2.8 ± 0.1 times versus control cells | increase of caspase-3 activity (caspase-3 in MCF-7 cells): 3.4 ± 0.1 times versus control cells | increase of caspase-3 activity (caspase-3 in CoN cells): 1.4 ± 0.1 times versus control cells | nuclear changes after Hoechst 33342 staining (PC-3 cells [5]): chromatin condensation and karyopyknosis | nuclear changes after Hoechst 33342 staining (MCF-7 cells [6]): chromatin condensation and karyopyknosis | nuclear changes after Hoechst 33342 staining (CoN cells [7]): chromatin condensation and karyopyknosis

— paper PMC6270921, “Study on the Cytotoxic Activity of Drimane Sesquiterpenes and Nordrimane Compounds against Cancer Cell Lines” (Molecules, 2014)
